“Also recorded” adds a separate entry of the source. Square brackets hold non-standard residues; d marks the D form. Peptide text beside a SMILES is read from it.
Experiments:
[1] = test system: endotoxins-induced uveitis albino rat model; test: Endotoxins induced uveitis (EIU), single intravenous injection, clinical scoring 24 hours after LPS; assay type: in vivo; set-up: key to clinical score of ocular inflammation, mean score (mean±SEM) / clinical score of ocular inflammation, median: ocular inflammation score per eye, 0 = none to 4 = intense (+1 fibrin); details: for clinical score of ocular inflammation, mean score (mean±SEM) / clinical score of ocular inflammation, median: 24 hours after LPS
Procedure: FIG. 28 Clinical evaluation of administration of different amounts of the JNK inhibitor according to SEQ ID NO: 172 in albino rats after intravenous administration (endotoxins induced uveitis model). Form left to right: Vehicle, 0.015 mg/kg (i.v.) of SEQ ID NO: 172; 0.18 mg/kg (i.v.) of SEQ ID NO: 172; 1.8 mg/kg (i.v.) of SEQ ID NO: 172, 2 mg/kg (i.v.) of SEQ ID NO: 197 and 20 μg dexamethasone (administered directly by subconjunctival injection to the eye). Indicated is the clinical score (mean and the SEM).
The anti-inflammatory potency of the JNK inhibitor of SEQ ID NO: 172 was tested in albino rats following intravenous administration (EIU/LPS model). The aim of this study was to determine the effects of single intravenous injections of SEQ ID NO: 172 (0.015, 0.18, and 1.80 mg/kg) on the inflammatory response in an endotoxins-induced uveitis albino rat model and to compare these affects to those obtained with prior art JNK inhibitor of SEQ ID NO: 197 (2 mg/kg). As a further control served phosphate sodic dexamethasone.
Sixty (60) male Lewis rats were randomly divided into six (6) groups of ten (10) animals each. EIU was induced by footpad injection of lipopolysaccharide (LPS, 1 mg/kg). NaCl (0.9%), SEQ ID NO: 197 at 2 mg/kg and SEQ ID NO: 172 at three concentrations (1.80 mg/kg, 0.18 mg/kg and 0.015 mg/kg) were administered by intravenous injection. Phosphate sodic dexamethasone ([…]) was administered by sub-conjunctival injection in both eyes. 24 hours after LPS injection, inflammatory response was evaluated by clinical scoring.
The intensity of clinical ocular inflammation was scored on a scale from 0 to 4 for each eye: • Grade 0 no inflammation • Grade 1 slight iris and conjunctival vasodilation • Grade 2 moderate iris and conjunctival vasodilation with flare • Grade 3 intense iris and conjunctival vasodilation with flare • Grade 4 intense inflammatory reaction • (+1) fibrin formation and seclusion of pupils

[2] = test system: scopolamine-induced dry eye in mice; test: Scopolamine-induced model of dry eye (TBUT, PRTT, histopathology); assay type: in vivo, mouse; details: for histological scores of the cornea compared with cyclosporine group: Day 22
Procedure: The objective of this study was to assess the effects of two different compounds, the all-D-retro-inverso JNK-inhibitor (poly-)peptide of SEQ ID NO: 197 and the JNK inhibitor (poly-)peptide of SEQ ID NO: 172, at three dose levels in a mouse model of scopolamine-induced dry eye.
The peptides of SEQ ID NO: 197 and SEQ ID NO: 172 were tested for efficacy in this murine model of dry eye. The peptides were both tested at a low, medium and a high dose. […] The vehicle, which also served as the negative control, was 0.9% Sodium Chloride for Injection USP.
The study consisted of a total of 9 groups of female C57BL/6 mice, comprising 8 groups of 12 mice each and an additional group of 4 mice. Bilateral short-term dry eye was induced by a combination of scopolamine hydrobromide (Sigma-Aldrich Corp., St. Louis, Mo.) injection (subcutaneous (SC), four times daily, 0.5 mg/dose, Days 0-21) and by exposing mice to the drying environment of constant air draft. […] Mice of Group 9 were maintained as un-induced, (no dry eye) untreated controls.
During the in-life (treatment) period, clinical observations were recorded once daily; slit-lamp examination (SLE) with corneal fluorescein staining, tear break-up time test (TBUT), and phenol red thread test (PRTT) were performed three times per week. Necropsies were performed on Day 22; eyes, eye lids, conjunctivae, and lacrimal glands were collected from both eyes of each animal. Tissues from the right eyes (oculus dexter, OD) were fixed and then evaluated microscopically. Tissues from the left eyes (oculus sinister; OS) were flash-frozen in liquid nitrogen and stored frozen at −80° C. for possible subsequent analyses.
Prior to the start of the study, the (poly-)peptides of SEQ ID NO: 172 and of SEQ ID NO: 197 were formulated in sterile saline (vehicle). Dosing solutions at each concentration were sterilized using 0.2-μm filters, aliquoted to multiple pre-labeled vials, and frozen at −20° C.
Prior to entry into the study, each animal underwent a SLE and indirect ophthalmic examination using topically-applied fluorescein. Ocular findings were recorded using the Draize scale ocular scoring. SLE and Draize scoring were repeated three times a week during the in-life period.
The TBUT test was conducted three times weekly by measuring the time elapsed in seconds between a complete blink after application of fluorescein to the cornea and the appearance of the first random dry spot in the tear film. […] At least ninety seconds later, corneal epithelial damage was graded using a slit-lamp with a cobalt blue filter after another drop of 0.1% fluorescein was reapplied to the cornea; the cornea then was scored per the Draize ocular scale.
Tear production was measured three times a week in both eyes using PRTT test strips (Zone-Quick; Menicon, Nagoya, Japan). Prior to the first treatment of the day, a thread was applied to the lateral canthus of the conjunctival fornix of each eye for 30 seconds under slit-lamp biomicroscopy. Tear migration up the tread (i.e., the length of the wetted cotton thread) was measured using a millimeter scale.
At necropsy on Day 22, both eyes from each animal, including the globes, lacrimal glands, eyelids, and conjunctivae, were excised.

[3] = Stability (half-life) in human serum, intact peptide by UPLC-MS; assay type: in vitro ADME; details: human serum (50% in FIG. 5; 10 and 50% in PBS), 0.1 mM peptide
Procedure: FIG. 5: Stability of JNK inhibitors with SEQ ID NOs: 172, 196 and 197 in 50% human serum. The JNK inhibitor with SEQ ID NO: 196 was totally degraded into amino acids residues within 6 hours (A). The JNK inhibitor with SEQ ID NO: 172 was completely degraded only after 14 days (B). The JNK inhibitor with SEQ ID NO: 197 was stable at least up to 30 days (B).
The JNK inhibitors with the sequence of SEQ ID NOs: 196, 197, and 172 (0.1 mM final concentration) were digested in human serum (10 and 50% in PBS 1×). The experiment was performed as described by Tugyi et al. (Proc Natl Acad Sci USA, 2005, 413-418). The remaining intact peptide was quantified by UPLC-MS. Stability was assessed for SEQ ID NOs: 196, 197, and 172 identically but in two separate assays. While the JNK inhibitor with SEQ ID NO: 196 was totally degraded into amino acids residues within 6 hours, the JNK inhibitor with SEQ ID NO: 172 was completely degraded only after 14 days. The JNK inhibitor with SEQ ID NO: 197 was still stable after 30 days.

[4] = topical ocular TID, Days 1 to 21

## CC(C)C[C@H](NC(=O)[C@H](CC(N)=O)NC(=O)[C@H](CC(C)C)NC(=O)[C@@H](NC(=O)[C@@H](C)NC(=O)[C@@H]1CCCN1C(=O)[C@H](CCCNC(=N)N)NC(=O)[C@@H](CCCCN)NC(=O)[C@@H]1CCCN1C(=O)[C@H](CCCNC(=N)N)NC(=O)[C@@H](CCCNC(=N)N)NC(=O)[C@H](CCCNC(=N)N)NC(=O)[C@H](CCCNC(=N)N)NC(=O)[C@H](CCC(N)=O)NC(=O)[C@@H](CCCNC(=N)N)NC(=O)[C@H](CCCNC(=N)N)NC(=O)[C@H](CCCCN)NC(=O)[C@H](CCCCN)NC(=O)[C@H](N)CCCNC(=N)N)[C@@H](C)O)C(=O)N[C@H](Cc1ccccc1)C(N)=O [SEQ ID NO: 172, rKKRrQRRrRPkRPaTLNLf] (H-[dR]KKR[dR]QRR[dR]RP[dK]RP[dA]TLNL[dF]-NH2; N-terminus assumed)
[1]; 0.015 mg/kg intravenous
  clinical score of ocular inflammation, mean score (mean±SEM): 2.3±0.3
  clinical score of ocular inflammation, median: 2
[1]; 0.18 mg/kg intravenous
  clinical score of ocular inflammation, mean score (mean±SEM): 2.4±0.3
  clinical score of ocular inflammation, median: 2
[1]; 1.80 mg/kg intravenous
  clinical score of ocular inflammation, mean score (mean±SEM): 2.1±0.3
  clinical score of ocular inflammation, median: 2
[1]; single intravenous injection, SEQ ID NO: 197 at 2 mg/kg, SEQ ID NO: 172 at 0.015, 0.18, 1.80 mg/kg
  endotoxin-induced inflammation in the anterior chamber (conclusion): also reduced the endotoxin-induced inflammation
[2]; 0.2% (mid dose)
  histological scores of the cornea compared with cyclosporine group: the most effective, after cyclosporine
[2]; 0.6% (high dose)
  histological scores of the cornea compared with cyclosporine group: the most effective, after cyclosporine
[2]; Day 7 to Day 21, SEQ ID NO: 172 0.05%, 0.2% and 0.6%, cyclosporine 0.05%
  TBUT AUC compared with vehicle control (Kruskal-Wallis): significant increases in the TBUT AUC
[2]; Day 21, mid and high-dose (0.2%, 0.6%)
  PRTT in the last test, aqueous tear production: therapeutic effects similar to cyclosporine
[2]; [4]
  PRTT, production of aqueous tears, low, mid and high dose (in words): significantly more aqueous tears compared to vehicle-treated animals
  TBUT means, low, mid and high dose (in words): above the vehicle group; also recorded: dose-dependent increase in TBUT
[3]
  completely degraded only after: 14 days

Source: US10596223B2, “JNK inhibitor molecules for treatment of various diseases” (Xigen Inflammation Ltd., priority 2011, dated 2020)
